Measurements as given in US8110528B2, “Active ingredient combinations with insecticidal properties” (Bayer Cropscience AG, priority 2006, dated 2012).

Experiments:
Phaedon cochleariae = Phaedon cochleariae larvae test (cabbage leaf dip); type: in vivo, mustard beetle (Phaedon cochleariae) larvae; details: cabbage leaves dipped
Description: (§1) The expected activity for a given combination of two active compounds can be calculated according to S. R. Colby, Weeds 15 (1967), 20-22 as follows: • If • X is the kill rate, expressed in % of the untreated control, when active compound A is applied at an application rate of m g/ha or at a concentration of m ppm, • Y is the kill rate, expressed in % of the untreated control, when active compound B is applied at an application rate of n g/ha or at a concentration of n ppm and • E is the kill rate, expressed in % of the untreated control, when active compounds A and B are applied at application rates of m and n g/ha or at a concentration of m and n ppm, then
(§2) If the actual insecticidal kill rate is greater than calculated, the kill of the combination is superadditive, i.e. there is a synergistic effect. In this case, the actual observed kill rate has to be greater than the value for the expected kill rate (E) calculated from the formula given above.
• Solvent: 7 parts by weight of dimethylformamide • Emulsifier: 2 parts by weight of alkylaryl polyglycol ether
To produce a suitable preparation of active compound, 1 part by weight of active compound is mixed with the stated amounts of solvent and emulsifier, and the concentrate is diluted with emulsifier-containing water to the desired concentration.
Cabbage leaves (Brassica oleracea) are treated by being dipped into the preparation of active compound of the desired concentration and populated with larvae of the mustard beetle (Phaedon cochleariae) while the leaves are still moist.
After the desired period of time, the kill in % is determined. 100% means that all beetle larvae have been killed; 0% means that none of the beetle larvae have been killed. The kill rates determined are entered into the Colby formula (see sheet 1).

Myzus persicae = Myzus persicae test (cabbage leaf dip); type: in vivo, green peach aphid (Myzus persicae); details: cabbage leaves dipped
Description: as §1, §2
• Solvent: 7 parts by weight of dimethylformamide • Emulsifier: 2 parts by weight of alkylaryl polyglycol ether […]
After the desired period of time, the kill in % is determined. […] The kill rates determined are entered into the Colby formula (see sheet 1).

CN/C(=N\[N+](=O)[O-])NCc1cnc(Cl)s1 [clothianidin]
Kill in % after 4d (Phaedon cochleariae; 4 ppm): 25%
Kill in % after 6d (Phaedon cochleariae; 4 ppm): 21%
Kill in % after 6d (Myzus persicae; 0.16 ppm): 35%

CN(Cc1ccc(Cl)nc1)C1=CC(=O)OC1 [compound (Ia)]
Kill in % after 4d (Phaedon cochleariae; 20 ppm): 5%

O=C1C=C(N(Cc2ccc(Cl)nc2)C2CC2)CO1 [compound (Ib)]
Kill in % after 6d (Phaedon cochleariae; 20 ppm): 11%
Kill in % after 6d (Myzus persicae; 0.8 ppm): 25%
